Structures are written as SMILES.

Data set [1] relates to RAW 264.7 gamma NO(−) macrophages. In words: Cell viability of activated macrophages (MTT or resazurin assay). It is filed as cell-based, mouse. Here is the method: Cell culture. […] All cultures were incubated at 37° C. in a humidified atmosphere with 5% CO2. Cell number was assessed by trypan blue dye exclusion on a Neubauer hemacytometer. Cells were grown to 90% confluence in sterile cell culture flasks and gently detached using a scraper (Fisher Scientific). For phenolic compound treatment tests, cells were cultured in triplicate in Costar flat-bottom cell culture plates (Corning Inc.). Cells were plated at a density of 6×10^5 cells/well in 24-well cell culture plates and grown for 1 h to allow them to attach to the plate. Compounds to be tested were initially dissolved in 10 μl of DMSO, and then RPMI was added to make solutions in a series of concentrations with a dilution factor of 2. […] Cells were supplemented with the test compounds for 1 h before stimulation with 10 ng/ml lipopolysaccharide (LPS) and 10-50 units/ml interferon gamma (IFN-γ). The activated cells were incubated for 24 h and then supernatants were collected to determine nitrite concentration and/or stored at −80° C. for further use. Control cells were grown under identical conditions but were not exposed to the test compounds or LPS/IFN-γ.
Cell Viability. Cell viability was determined by the MTT assay and/or the resazurin-based in vitro toxicology assay kit, TOX-8 (Sigma). The viability of cells activated only by LPS/IFN-γ was arbitrarily set as 100, and all other viabilities, that is, cells receiving different treatments but within the same 24-well plate, were normalized to that of the LPS/IFN-γ activated control cells.
Inhibition of Nitric Oxide Production. […] Cell viability was assayed to exclude the possibility that the inhibitory effects of phenolic compounds were due to their cytotoxicity. The MTT assay was used for the colorless phenolic compound-treated macrophages, whereas the resazurin assay was used for cranberry and blueberry juice-treated macrophages.

For data set [2] the following is noted: reference phenolic compounds, Fukumoto and Mazza (2000); cited from earlier work.
The mark [3] stands for this setting: NO experiment (Table 7), 31 μM, LPS/IFN-γ control = 100.
The mark [4] stands for this setting: NO experiment (Table 7), 63 μM, LPS/IFN-γ control = 100.
Where [5] appears, read: NO experiment (Table 7), 125 μM, LPS/IFN-γ control = 100.
Setting [6] is: TNF-α experiment (Table 8), 100 μM.
Setting [7] is: TNF-α experiment (Table 8), 200 μM.
The mark [8] stands for this setting: TNF-α experiment (Table 8), 300 μM.
[9] abbreviates: TNF-α experiment (Table 8), 400 μM.
Setting [10] is: TNF-α experiment (Table 8), 500 μM.

Take `O=C(/C=C/c1ccc(O)c(O)c1)O[C@@H]1C[C@](O)(C(=O)O)C[C@@H](O)[C@H]1O` [Chlorogenic acid]: the Cell viability is listed as 105.6 (8.7) % in data set [1] (setting [3]); 106 (5.7) % in data set [1] (setting [4]); 98.5 (7.1) % in data set [1] (setting [5]); 100.6 (1.9) % in data set [1] (setting [6]); 98.9 (2.3) % in data set [1] (setting [7]); 97.1 (1.4) % in data set [1] (setting [8]). Besides, the Cell viability was 97.3 (1) % in data set [1] (setting [9]) and 99 (1.9) % in data set [1] (setting [10]).
As to `O=C(O)c1cc(O)c(O)c(O)c1` [Gallic acid], the Antiradical activity in data set [2] was −6.21 (0.60). Moreover, the Antiradical power in data set [2] was 12.50. Further, the Cell viability in data set [1] (NO experiment (Table 7), 16 μM, LPS/IFN-γ control = 100) is recorded as 110 (2.2) %; in data set [1] (setting [3]), 111 (6.4) %; in data set [1] (setting [4]), 98.9 (0.9) %; in data set [1] (setting [5]), 108.5 (0.6) %; in data set [1] (NO experiment (Table 7), 250 μM, LPS/IFN-γ control = 100) it was 100.6 (3.7) %; in data set [1] (NO experiment (Table 7), 500 μM, LPS/IFN-γ control = 100) it was 109.7 (5.4) %. Besides, the Cell viability in data set [1] (TNF-α experiment (Table 8), 50 μM) was 97.7 (0.4) %; in data set [1] (setting [6]), 98.3 (2.3) %; in data set [1] (setting [7]), 96.7 (0.8) %; in data set [1] (setting [8]), 97.6 (2.5) %; in data set [1] (setting [9]) it was 96.1 (2.3) %; in data set [1] (setting [10]) it was 95.6 (1.6) %.

The values are drawn from patent US9358262B2, “Use of antioxidant-enriched fermented blueberry extracts in the treatment of diabetes” (priority 2003, dated 2016).
